Measured values as given in article PMC11969009 (Nature Communications, 2025).
Values joined by “and” are separate entries in the source; they are usually repeats but may differ in a detail not shown here. Equal values may be shown once. Read-outs that look alike come from different tables or passages of the source.

Legend:
[1] = system: SARS-CoV-2 clinical isolate VIC001; test: microbe, parasite or virus in culture; type: cell-based
229E PL2pro = 229E PL2pro (Human coronavirus 229E, UniProt P0C6X1); test: biochemical; design: inhibition of 229E PL2pro, UbRh dose-response replicate value: unit: %
SARS-CoV-2 PLpro = SARS-CoV-2 PLpro (Severe acute respiratory syndrome coronavirus 2, UniProt P0DTD1); test: cell-based; type: cell-based
OC43 PLpro = OC43 PLpro (Human coronavirus OC43, UniProt P0C6X6); type: biochemical; design: unit not given here
SARS-CoV PLpro = SARS-CoV PLpro (Severe acute respiratory syndrome coronavirus, UniProt P0C6X7); test: biochemical; design: inhibition of SARS-CoV PLpro, UbRh dose-response replicate value: unit: %
MERS-CoV PLpro = MERS-CoV PLpro (Middle East respiratory syndrome-related coronavirus, UniProt K9N7C7); type: biochemical; design: unit: %
NL63 PL2pro = NL63 PL2pro (Human coronavirus NL63, UniProt P0C6X5); test: biochemical; design: inhibition of NL63 PL2pro, UbRh dose-response replicate value: unit: %
NL63 PL2pro, sequence (P0C6X5 1578-1876 limits assumed): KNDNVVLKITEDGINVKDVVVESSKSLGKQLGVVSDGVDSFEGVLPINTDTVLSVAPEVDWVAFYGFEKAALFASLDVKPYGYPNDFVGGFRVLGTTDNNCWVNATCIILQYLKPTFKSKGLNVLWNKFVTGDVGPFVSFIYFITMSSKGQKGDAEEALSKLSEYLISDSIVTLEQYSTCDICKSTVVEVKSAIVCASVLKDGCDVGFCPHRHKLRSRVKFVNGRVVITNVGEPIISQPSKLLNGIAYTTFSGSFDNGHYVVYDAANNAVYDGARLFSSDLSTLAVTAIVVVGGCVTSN

MERS-CoV PLpro, sequence (K9N7C7 1482-1803 limits assumed): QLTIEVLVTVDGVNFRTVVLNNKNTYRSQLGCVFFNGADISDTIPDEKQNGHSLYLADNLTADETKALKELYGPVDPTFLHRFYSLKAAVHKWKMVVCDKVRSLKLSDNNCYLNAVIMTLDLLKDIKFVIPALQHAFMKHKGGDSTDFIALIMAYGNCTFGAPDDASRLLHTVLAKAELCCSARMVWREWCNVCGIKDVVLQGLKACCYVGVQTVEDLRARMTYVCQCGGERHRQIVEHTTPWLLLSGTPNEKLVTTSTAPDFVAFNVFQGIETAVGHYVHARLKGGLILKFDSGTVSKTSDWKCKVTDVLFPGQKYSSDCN
229E PL2pro, sequence (P0C6X1 1599-1905 limits assumed): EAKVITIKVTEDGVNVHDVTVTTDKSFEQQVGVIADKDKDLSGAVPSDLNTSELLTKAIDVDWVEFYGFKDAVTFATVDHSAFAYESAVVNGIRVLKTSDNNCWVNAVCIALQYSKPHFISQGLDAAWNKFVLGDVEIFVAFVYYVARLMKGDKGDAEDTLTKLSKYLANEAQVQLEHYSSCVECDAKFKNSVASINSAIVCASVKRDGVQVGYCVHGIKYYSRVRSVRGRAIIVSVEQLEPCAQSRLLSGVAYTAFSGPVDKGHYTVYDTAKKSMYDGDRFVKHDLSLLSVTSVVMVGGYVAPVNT
OC43 PLpro, sequence (P0C6X6 1561-1872 limits assumed): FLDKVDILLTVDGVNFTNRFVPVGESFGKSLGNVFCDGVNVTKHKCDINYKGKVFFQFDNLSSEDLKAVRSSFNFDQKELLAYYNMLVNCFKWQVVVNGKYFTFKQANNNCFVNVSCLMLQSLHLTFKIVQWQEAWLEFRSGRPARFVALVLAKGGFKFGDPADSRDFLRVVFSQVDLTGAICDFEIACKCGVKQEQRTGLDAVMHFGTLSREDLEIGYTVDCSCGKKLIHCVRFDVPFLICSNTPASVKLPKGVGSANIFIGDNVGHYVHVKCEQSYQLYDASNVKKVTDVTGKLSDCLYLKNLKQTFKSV

Structure (SMILES): CO/N=C(/c1ccc2cc(OC)ccc2c1)[C@@H]1CCCN([C@H]2CC[C@@H](O)CC2)C1 [WEHI-P4]
- EC50 ([1]; Severe acute respiratory syndrome coronavirus 2, Vero, read-out: Antiviral EC50 (plaque assay)): 400 nM
- EC50 ([1]; Severe acute respiratory syndrome coronavirus 2, Vero, read-out: Antiviral EC50 (plaque assay) with Pgp inhibitor): 306 nM
- EC50 ([1]; read-out: Antiviral EC50 (plaque assay)): 410 nM
- inhibition of 229E PL2pro, UbRh dose-response replicate value (229E PL2pro): -3.299 and -1.103 and -1.357 and -1.684 and -5 and -3.221 and 0.1898 and -0.4439 and 15.3408 and -2.102 and -1.619 and -0.7174 and -1.603 and -0.8771 and -3.61 and -1.122 and -1.443 and -0.5265 and -4.511 and -0.9697
- inhibition of 229E PL2pro, UbRh dose-response replicate value (229E PL2pro; Conc 0.00498 µM): -2.024 and 3.205 and 24.2526 and 1.229
- inhibition of 229E PL2pro, UbRh dose-response replicate value (229E PL2pro; Conc 0.0149 µM): -0.08917 and 0.9383 and 15.3791 and -0.8809
- inhibition of 229E PL2pro, UbRh dose-response replicate value (229E PL2pro; Conc 0.0448 µM): -0.8342 and -1.338 and 5.491 and -0.5647
- inhibition of 229E PL2pro, UbRh dose-response replicate value (229E PL2pro; Conc 3.63 µM): -3.66 and -1.559 and -7.103 and -2.2201
- inhibition of 229E PL2pro, UbRh dose-response replicate value (229E PL2pro; Conc 98 µM): 0.4544 and 1.371 and 3.91 and 5.222
- EC50 (SARS-CoV-2 PLpro): 310 nM
- inhibition of OC43 PLpro, UbRh dose-response replicate value (OC43 PLpro): -2.257 and 2.5807 and 4.868 and -0.1188 and -1.486 and 1.4475 and 10.2923 and 5.639 and 2.747 and 1.253 and 10.74 and 6.439 and 0.2359 and 1.058 and 1.648 and 0.7875 and 3.338 and 4.936 and 12.7203 and 5.2479
- inhibition of OC43 PLpro, UbRh dose-response replicate value (OC43 PLpro; Conc 0.00498 µM): -1.019 and 4.2451 and 4.799 and 3.755
- inhibition of OC43 PLpro, UbRh dose-response replicate value (OC43 PLpro; Conc 0.0149 µM): 3.285 and -5.104 and 7.176 and 0.6631
- inhibition of OC43 PLpro, UbRh dose-response replicate value (OC43 PLpro; Conc 0.0448 µM): 1.599 and 3.82 and 6.435 and 3.684
- inhibition of OC43 PLpro, UbRh dose-response replicate value (OC43 PLpro; Conc 3.63 µM): -4.48 and 0.0664 and 5.368 and 1.321
- inhibition of OC43 PLpro, UbRh dose-response replicate value (OC43 PLpro; Conc 98 µM): 8.342 and 5.591 and 3.318 and 3.826
- IC50 (SARS-CoV PLpro): 22 nM
- inhibition of SARS-CoV PLpro, UbRh dose-response replicate value (SARS-CoV PLpro): 99.5179 and 99.8695 and 99.888 and 100.41 and 101.206 and 100.652 and 97.9154 and 99.4293 and 98.8906 and 95.7801 and 96.2197 and 96.0782 and 88.7276 and 90.1243 and 89.7578
- inhibition of SARS-CoV PLpro, UbRh dose-response replicate value (SARS-CoV PLpro; Conc 0.00498 µM): 14.7599 and 17.411 and 20.7686
- inhibition at 0.00498 µM (SARS-CoV PLpro; Conc 0.00498 µM, read-out: inhibition of SARS-CoV PLpro, UbRh dose-response replicate value): 16.2%
- inhibition of SARS-CoV PLpro, UbRh dose-response replicate value (SARS-CoV PLpro; Conc 0.0149 µM): 37.3989 and 38.0308 and 36.4129
- inhibition at 0.0149 µM (SARS-CoV PLpro; Conc 0.0149 µM, read-out: inhibition of SARS-CoV PLpro, UbRh dose-response replicate value): 35.6%
- inhibition of SARS-CoV PLpro, UbRh dose-response replicate value (SARS-CoV PLpro; Conc 0.0448 µM): 69.6451 and 70.3349 and 71.2781
- inhibition at 0.0448 µM (SARS-CoV PLpro; Conc 0.0448 µM, read-out: inhibition of SARS-CoV PLpro, UbRh dose-response replicate value): 67.2%
- inhibition of SARS-CoV PLpro, UbRh dose-response replicate value (SARS-CoV PLpro; Conc 3.63 µM): 99.5331 and 99.9857 and 99.4982
- inhibition at 3.63 µM (SARS-CoV PLpro; Conc 3.63 µM, read-out: inhibition of SARS-CoV PLpro, UbRh dose-response replicate value): 99.4%
- inhibition of SARS-CoV PLpro, UbRh dose-response replicate value (SARS-CoV PLpro; Conc 98 µM): 99.3819 and 99.8238 and 100.106
- inhibition at 98 µM (SARS-CoV PLpro; Conc 98 µM, read-out: inhibition of SARS-CoV PLpro, UbRh dose-response replicate value): 99.7%
- inhibition at […] (SARS-CoV PLpro; read-out: inhibition of SARS-CoV PLpro, UbRh dose-response replicate value): 100% (2×) and 98.8% and 95.9% and 88.8%
- inhibition of MERS-CoV PLpro, UbRh dose-response replicate value (MERS-CoV PLpro): -2.626 and 0.2924 and -2.097 and -1.6716 and -0.7294 and -2.565 and -2.287 and 0.1452 and -3.504 and -2.889 and 1.578 and -2.541 and -3.292 and -3.12 and -0.8701 and -1.654 and -2.848 and 0.1888 and -1.626
- inhibition of MERS-CoV PLpro, UbRh dose-response replicate value (MERS-CoV PLpro; Conc 0.00498 µM): 2.537 and 1.088 and 4.818 and -0.3578
- inhibition of MERS-CoV PLpro, UbRh dose-response replicate value (MERS-CoV PLpro; Conc 0.0149 µM): 0.4714 and 1.45 and -3.026 and -3.057
- inhibition of MERS-CoV PLpro, UbRh dose-response replicate value (MERS-CoV PLpro; Conc 0.0448 µM): 0.04351 and -1.536 and 0.7971 and -3.294
- inhibition of MERS-CoV PLpro, UbRh dose-response replicate value (MERS-CoV PLpro; Conc 3.63 µM): -1.9557 and -1.916 and -5.199 and -5.618
- inhibition of MERS-CoV PLpro, UbRh dose-response replicate value (MERS-CoV PLpro; Conc 98 µM): -3.229 and -4.988 and -1.6159 and -4.525
- IC50 (NL63 PL2pro): 52000 nM
- inhibition of NL63 PL2pro, UbRh dose-response replicate value (NL63 PL2pro): 29.2044 and 27.2154 and 12.8016 and 14.0355 and 13.7224 and -0.9824 and 3.459 and 0.1256 and -0.3351 and 1.574 and 1.516 and -0.1016 and -0.4149 and 0.8753 and 0.8707 and 2.0171 and 6.071
- inhibition of NL63 PL2pro, UbRh dose-response replicate value (NL63 PL2pro; Conc 0.00498 µM): 2.403 and 7.259 and 5.7694 and -2.335
- inhibition of NL63 PL2pro, UbRh dose-response replicate value (NL63 PL2pro; Conc 0.0149 µM): 1.231 and 5.289 and 2.0908 and -3.1147
- inhibition of NL63 PL2pro, UbRh dose-response replicate value (NL63 PL2pro; Conc 0.0448 µM): 0.2539 and -0.387 and 1.95 and -0.1081
- inhibition of NL63 PL2pro, UbRh dose-response replicate value (NL63 PL2pro; Conc 3.63 µM): 5.122 and 3.572 and 1.225 and -0.02217
- inhibition of NL63 PL2pro, UbRh dose-response replicate value (NL63 PL2pro; Conc 98 µM): 57.8171 and 54.6906 and 55.1157
